The nature of this experiment: Cat free-choice feeding study: daily food intake. The class given is in vivo. The following applies: overweight cats. How it is done:
All feeding studies were conducted from Feb. 26, 1998 to Sep. 17, 1998 at Summit Ridge Farms, Susquehanna, Pa. All were adult domestic short-haired cats. Most were quite old, as they had been in the colony 3 to 14 years and were thought to have been 1 to 4 years of age when they were obtained (Table 11). Just before beginning the study, all cats were given a thorough physical examination by a veterinarian. […] Each cat's current and estimated optimum weight were determined during this exam. […] All cats were housed individually with 12 hr light and dark cycles, and at a temperature of 60 to 85° F. and humidity of 30 to 70%. Food bowls, water bowls and litter boxes were emptied and sanitized daily. Water and the diet being fed were always available for free choice consumption except the night before the cats were to be weighed, when food bowls were removed. The amount of diet consumed was recorded, diet uneaten discarded and fresh diet fed daily. Weekly, following an overnight (14-hr) fast, each cat was weighed. Each cat was initially fed the non-jojoba containing diet FC-0 for 4 weeks, or until it was 14% or more over its estimated optimum weight, at which time it was fed either the diet containing 4% (FC-2) or 8% (FC-3) jojoba. Cats whose weight decreased by more than 4.6% in 1 week, or 6% in 2 weeks, were changed to the next lower jojoba-containing diet. […] When a cat was within 2.0% of its optimum weight, it was changed to a lower jojoba-containing diet; either that containing 2% or 4% (FC-1 or FC-2). If optimum body weight wasn't maintained when this diet was fed, the cat was changed to a higher jojoba-containing diet if it had gained weight and a lower jojoba-containing diet if it had lost weight. When the cat's weight had been maintained within 4% of its optimum for 4 weeks while eating the same diet, it was given a thorough physical exam by a veterinarian and removed from the study.

Take `CO[C@H]1[C@@H](OC)C[C@@H](O[C@@H]2O[C@H](CO)[C@@H](O)[C@H](O)[C@H]2O)/C(=C\C#N)[C@@H]1O` [Simmondsin, simmondsin]: the “Percent Decrease in Food Intake” value was determined as 17.8% (0.12% bioactive simmondsin activity in diet), 30.7% (0.24% bioactive simmondsin activity in diet), 45.9% (0.49% bioactive simmondsin activity in diet) and 49.2% (0.73% bioactive simmondsin activity in diet).

For the origin of these results see USRE38167E1, “Weight reduction method for cats and other pets” (International Flora Technologies Ltd, priority 1996, dated 2003).
